Reference: patent US20130028959A1, “Liposomes for Preventing the Spread of HIV” (Massachusetts Institute of Technology, priority 2009, published 2013)

Assay: Surface charge of lipids used to make liposomes
Assay type: physicochemical
Settings: lipid used to make liposomes

Phosphatidylcholine [Phosphatidylcholine (PC)]
Relative charge: No
